Data: patent publication US7988944B2, “Peroxide decomposition catalyst” (Sumitomo Chemical Company, Limited, priority 2005, dated 2011)

Key:
[1] = Hydrogen peroxide decomposition test in the presence of poly(sodium 4-styrenesulfonate); details: 80° C.; for V(O2), generated oxygen volume: 20 minutes, pH4.0 tartrate buffer/ethylene glycol, 2.28 mmol H2O2, blank corrected, 0° C. and 101325 Pa; for N(O2), mole number of oxygen molecule generated per 20 minutes: oxygen regarded as ideal gas
Method: To a mixture of 8.41 μmol (per one metal atom) of a catalyst and 21.1 mg of poly(sodium 4-styrenesulfonate) (product commercially available from Aldrich, weight average molecular weight: about 70,000) are added 1.00 ml of a tartaric acid/sodium tartrate buffer (pH4.0) and 1.00 ml of ethylene glycol. After this catalyst mixture is stirred at 80° C. for 5 minutes, 0.20 ml of an 11.4 mol/l aqueous hydrogen peroxide solution is added, and the mixture is stirred at 80° C. for 20 minutes. A volume of oxygen generated thereupon is measured with a gas burette, and an amount of decomposed hydrogen peroxide is calculated. Thereafter, this reaction solution is diluted and filtrated, and the filtrate is measured by gel permeation chromatography (GPC), thereby, a weight average molecular weight of poly(sodium 4-styrenesulfonate) after a test is obtained. The GPC analysis condition will be shown below. Column: TSKgel α-M (13 μm, 7.8 mmφ×30 cm) manufactured by Tosoh Corporation, column temperature: 40° C., mobile phase: 50 mmol/l aqueous ammonium acetate solution: CH3CN=7:3 (v/v), flow rate: 0.6 ml/min, detector: RI, injection amount: 50 μl. A weight average molecular weight was obtained as a value in terms of polyethylene oxide. The A value is obtained by the (equation 1), and the B value is obtained by the (equation 2).
Mn-bbpr (4.90 mg, 8.41 μmol (per one metal atom)), and poly(sodium 4-sutyrenesulfonate)(21.1 mg (product commercially available from Aldrich, weight average molecular weight: about 70,000)) were weighed in a two-necked flask (25 ml), and a tartaric acid/sodium tartrate buffer (1.00 ml (prepared from 0.20 mol/l tartaric acid aqueous solution and 0.10 mol/l sodium tartrate aqueous solution, pH4.0)) and ethylene glycol (1.00 ml) as a solvent were added thereto, followed by stirring. This was used as a catalyst mixed solution.
Septum was attached to one of inlets of the two-necked flask containing this catalyst mixed solution, and the other inlet was collected to a gas burette. This flask was stirred at 80° C. for 5 minutes, a hydrogen peroxide aqueous solution (11.4 mol/l, 0.20 ml (2.28 mmol)) was added via a syringe, and a hydrogen peroxide decomposition reaction was performed at 80° C. for 20 minutes. Generated oxygen was measured with a gas burette, and decomposed hydrogen peroxide was quantitated. An amount of generated oxygen was corrected based on the following blank test. Thereafter, the reaction solution was diluted with a water/acetonitrile mixed solution (water:acetonitrile=7:3 (v/v)) to a solution amount of 10.0 ml, and this solution was filtered with a syringe filter. This filtrate was GPC-measured, and a weight average molecular weight of poly (sodium 4-sutyrenesulfonate) after a test was obtained.
Poly(sodium 4-styrenesulfonate) after the hydrogen peroxide decomposition test was GPC-analyzed. The analyzing conditions are shown below. Column: TSKgel α-M (13 μm, 7.8 mmφ×30 cm) manufactured by Tosoh Corporation, column temperature: 40° C., mobile phase: 50 mmol/l ammonium acetate aqueous solution: CH3CN=7:3 (v/v), flow rate: 0.6 ml/min, detector: RI, in injection amount: 50 μl. A weight average molecular weight was obtained as a value in terms of polyethylene oxide.
An amount of decomposed hydrogen peroxide was obtained from a volume of oxygen generated in the hydrogen peroxide decomposition test.

[2] = Solubility test of catalyst in DMF; assay type: physicochemical; details: for Weight of peroxide decomposition catalyst residue which remained undissolved in DMF: about 20 mg catalyst, DMF 5.00 ml in total, residue on filter paper dried and weighed; for Solubility: catalyst 20.0±0.1 mg in 5.0 ml DMF, equation 3; for solubility (in words): from Table 1, DMF
Method: Herein, as an index of solubility in a peroxide decomposition catalyst, solubility of a peroxide decomposition catalyst (20.0±0.1 mg) in a constant amount (5.0 ml) of dimethylformamide (hereinafter abbreviated as DMF) can be used. The solubility as used herein is represented by the following (equation 3).
First, a filter paper (No 5B φ21 m/m) for Kiriyama funnel was dried (100° C., under 200 pa reduced pressure, 6 h), and this was weighed. Then, a peroxide decomposition catalyst (20.0±0.1 mg) and DMF (2.00 ml) were weighed in a 8 ml glass sample tube containing a stirrer, and this was stirred with a magnetic stirrer for 5 minutes. This mixture was transferred with a 2 ml pipette to a glass Kiriyama funnel (φ21 mm) in which the dried filter paper was spread, and this was suction-filtered. The sample tube, the stirrer and the pipette which were used, were washed with DMF several times (total amount 3.00 ml), and the attached catalyst and DMF washing solution were transferred to the Kiriyama funnel, and these were suction-filtered together. Thereafter, the residue on the filter paper, and the filter paper together with the Kiriyama funnel were dried (100° C., under 200 pa reduced pressure, 24 h) in a vacuum oven. After drying, the filter paper, and the residue on the filter paper were weighed, and a dry filter paper weight before filtration was subtracted from this weight to obtain a weight of the peroxide decomposition catalyst residue which remained undissolved in DMF. From this, solubility indicated by the (equation 3) was calculated.

Row | Structure (SMILES) | V(O2), generated oxygen volume [1] | N(O2), mole number of oxygen molecule generated per 20 minutes [1] | Weight of peroxide decomposition catalyst residue which remained undissolved in DMF [2] | Solubility [2] | solubility (in words) [2]
1 | CC(C)(C)c1ccc2c(c1)C1=Nc3c4cc(C(C)(C)C)ccc4c4[n]3[Fe][n]3c(c5ccc(C(C)(C)C)cc5c3=NC3=NC(=N4)c4cc(C(C)(C)C)ccc43)=NC2=N1 [Fe-pcy (^tBu)] | 1.40 mL | 0.0625 mmol | 0.03 mg | 99.8% | high solubility
2 | [Fe+2].c1ccc2c(c1)-c1nc-2nc2[n-]c(nc3nc(nc4[n-]c(n1)c1ccccc41)-c1ccccc1-3)c1ccccc21 [Iron phthalocyanine, iron phthalocyanine] | 14.33 mL | 0.64 mmol | 17.9 mg | 11.0% | low solubility
3 | [Co+2].c1ccc2c(c1)-c1nc-2nc2[n-]c(nc3nc(nc4[n-]c(n1)c1ccccc41)-c1ccccc1-3)c1ccccc21 [Cobalt phthalocyanine, cobalt phthalocyanine] | 4.9 mL | 0.219 mmol | 17.5 mg | 12.9% | low solubility
4 | O.O.[Na+].[Na+].[O]=[W](=[O])([O-])[O-] [Sodium tungstate dihydrate] |  |  | 16.5 mg | 17.8% | low solubility
5 | [Cu+2].c1ccc2c(c1)-c1nc-2nc2[n-]c(nc3nc(nc4[n-]c(n1)c1ccccc41)-c1ccccc1-3)c1ccccc21 [Copper phthalocyanine, copper phthalocyanine] | 0.00 mL | 0.00 mmol | 17.3 mg | 13.1% | low solubility
